For test [1], the system named is C. albicans MMX 2000 ATCC 10231. Briefly: MIC assay (CLSI microdilution). The class given is cell-based. Particulars: Candida albicans, ATCC10231, RPMI plus 0.002% Tween-80; read-out: MIC. In general terms: Dilution methods test growth across graded concentrations, often in twofold steps.
The subject of test [2] is C. neoformans MMX 0634 ATCC 90112. Kind of test: MIC assay (CLSI microdilution). The format is cell-based. Particulars: Cryptococcus neoformans, ATCC90112, RPMI plus 0.002% Tween-80; read-out: MIC.
Test [3] relates to C. parapsilosis MMX 2323 ATCC 22019. Kind of test: MIC assay (CLSI microdilution). The class given is cell-based, Candida parapsilosis. Conditions: read-out: MIC. Summed up:
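Broth microdilution MIC testing of Candida parapsilosis ATCC 22019 followed CLSI methods in RPMI-1640, with or without 0.002% Tween-80. Yeast grown 48 hours at 35° C on Sabouraud dextrose agar was suspended to a 0.5 McFarland standard and diluted 1:100 to roughly 0.5-2.5×10^3 CFU/mL. The MIC was the lowest concentration preventing visible growth.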

Test [4] relates to A. flavus MMX 5948. Briefly: MIC/MEC assay (CLSI microdilution). The format is cell-based. Conditions: Aspergillus flavus, MMX5948, 48 h; for minimal effective concentration: RPMI plus 0.002% Tween-80; for MIC: RPMI plus 0.002% Tween-80, read-out: MIC. In a few lines: (§1)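 CLSI broth microdilution in RPMI-1640 with 0.002% Tween-80; MMX 5280 was also tested without Tween-80. AbA compounds were two-fold serially diluted in 95% ethanol. Aspergillus spore inoculum was approx. 0.2-2.5×10^4 CFU/mL final.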

The subject of test [5] is A. fumigatus MMX 5944. Briefly: MIC/MEC assay (CLSI microdilution). The format is cell-based. Particulars: Aspergillus fumigatus, MMX5944, 48 h; for minimal effective concentration: RPMI plus 0.002% Tween-80; for MIC: RPMI plus 0.002% Tween-80, read-out: MIC. Summed up: as §1
For test [6], the system named is A. fumigatus MMX 6781 ATCC MYA-4609. Kind of test: MIC/MEC assay (CLSI microdilution). The format is cell-based. Conditions: Aspergillus fumigatus; for MIC: 48 h, RPMI plus 0.002% Tween-80, read-out: MIC; for minimal effective concentration: RPMI plus 0.002% Tween-80, 48 hr. In a few lines: as §1
The test system of test [7] is A. fumigatus MMX 6782 ATCC 13073. Kind of test: MIC/MEC assay (CLSI microdilution). The class given is cell-based. Particulars: Aspergillus fumigatus, ATCC13073, 48 h; for minimal effective concentration: RPMI plus 0.002% Tween-80, read-out: MEC; for MIC: RPMI plus 0.002% Tween-80, read-out: MIC. Summed up:
as §1

Test [8] has as its system A. fumigatus from Aureogen. Briefly: MIC/MEC assay (CLSI microdilution). The class given is cell-based. Particulars: Aspergillus fumigatus, 48 h; for minimal effective concentration: RPMI plus 0.002% Tween-80; for MIC: RPMI plus 0.002% Tween-80, read-out: MIC. In a few lines: as §1
Test [9] deals with A. niger MMX 0624 ATCC 16888. Briefly: MIC/MEC assay (CLSI microdilution). The class given is cell-based. Particulars: Aspergillus niger, ATCC16888, 48 h; for minimal effective concentration: RPMI plus 0.002% Tween-80, read-out: MEC; for MIC: RPMI plus 0.002% Tween-80, read-out: MIC. In a few lines:
as §1

Test [10] deals with A. fumigatus MMX 5280 ATCC MYA-3626. Briefly: MIC/MEC assay (CLSI microdilution). Particulars: Aspergillus fumigatus, 48 h. The format is cell-based, Aspergillus fumigatus. Summed up: as §1
The mark [11] stands for this setting: ATCC22019, RPMI plus 0.002% Tween-80.
Setting [12] is: RPMI plus 0.002% Tween-80, read-out: MEC.
Where [13] appears, read: RPMI plus 0.002% Tween-80, read-out: MIC.
The mark [14] stands for this setting: Without Tween-80, read-out: MEC.
Setting [15] is: Without Tween-80, read-out: MIC.

In brackets after ≈: the same amount, converted by molar mass. Like-named read-outs stand apart in the source and are kept apart here. Numbered stars: 1 amine (or outer) side, 2 acyl side, 3 side chain; on linkers, the order of the positions; unused ones are H or OH. Square brackets hold non-standard residues; d marks the D form. Peptide text beside a SMILES is read from it. X20 = CN([C@@H](Cc1cccc(-c2cnn(C3CCCC3)c2)c1)C(=O)[*:2])[*:1]; X16 = CC(C)c1cc(-c2cccc(C[C@@H](C(=O)[*:2])N(C)[*:1])c2)ccn1; X18 = CN([C@@H](Cc1cccc(-c2ccc3ccncc3c2)c1)C(=O)[*:2])[*:1]; Hmp(2R,3S) = CC[C@H](C)[C@@H](O)C(=O)O; NMeVal(β-OH) = CN[C@H](C(=O)O)C(C)(C)O; NMeV = CN[C@H](C(=O)O)C(C)C Some results are limits rather than exact numbers.

By MIC is commonly meant the lowest concentration found to suppress growth. For `CC[C@H](C)[C@@H]1NC(=O)[C@@H]2CCCN2C(=O)[C@H](Cc2cccc(-c3cnn(C4CCCC4)c3)c2)N(C)C(=O)[C@H](Cc2ccccc2)NC(=O)[C@H](C(C)C)N(C)C(=O)[C@@H]([C@@H](C)CC)OC(=O)[C@H](C(C)(C)O)N(C)C(=O)[C@H](CC(C)C)NC(=O)[C@H](C(C)C)N(C)C1=O` [Compound 12] (cyclo(F[X20]PI[NMeV]L[NMeVal(β-OH)][Hmp(2R,3S)][NMeV])), the MIC was 0.03 µg/mL in [1]; 0.5 µg/mL in [2]; 0.12 µg/mL in [3] (setting [11]); 1 µg/mL (≈ 0.809 µM) in test [3] (ATCC22019, Without Tween-80); > 64 µg/mL in [4]; > 64 µg/mL in test [5]. Moreover, the MIC in [6], in test [7], in test [8], in [9], in test [10] (setting [13]) and in test [10] (setting [15]) was > 64 µg/mL in each case. For the same molecule, the minimal effective concentration in [4], in test [5], in [6], in test [7], in [8] and in [9] was > 64 µg/mL throughout. The minimal effective concentration in test [10] (setting [12]) and in test [10] (setting [14]) was > 64 µg/mL throughout.
Regarding `CC[C@H](C)[C@@H]1NC(=O)[C@@H]2CCCN2C(=O)[C@H](Cc2cccc(-c3ccnc(C(C)C)c3)c2)N(C)C(=O)[C@H](Cc2ccccc2)NC(=O)[C@H](C(C)C)N(C)C(=O)[C@@H]([C@@H](C)CC)OC(=O)[C@H](C(C)(C)O)N(C)C(=O)[C@H](CC(C)C)NC(=O)[C@H](C(C)C)N(C)C1=O` [Compound 16] (cyclo(F[X16]PI[NMeV]L[NMeVal(β-OH)][Hmp(2R,3S)][NMeV])), the MIC in [1] is 0.03 µg/mL; in test [2] it was 0.12 µg/mL; in test [3] (setting [11]), 0.12 µg/mL; in [3] (ATCC22019, Without Tween-80), 1 µg/mL (≈ 0.819 µM); in test [4] it was 1 µg/mL; in test [5], > 64 µg/mL. In addition, the MIC in test [6] is > 64 µg/mL; in test [7], > 64 µg/mL; in [8], > 64 µg/mL; in test [9], 0.5 µg/mL; in [10] (setting [13]), > 64 µg/mL; in test [10] (setting [15]) it was > 64 µg/mL. The minimal effective concentration in [4] came out at 0.5 µg/mL; in [5], 2 µg/mL; in test [6], 2 µg/mL; in test [7] it was 1 µg/mL; in [8] it was 2 µg/mL; in test [9] it was 0.5 µg/mL. Further, the minimal effective concentration in test [10] (setting [12]) and in [10] (setting [14]) was 2 µg/mL throughout.
Take `CC[C@H](C)[C@@H]1NC(=O)[C@@H]2CCCN2C(=O)[C@H](Cc2cccc(-c3ccc4ccncc4c3)c2)N(C)C(=O)[C@H](Cc2ccccc2)NC(=O)[C@H](C(C)C)N(C)C(=O)[C@@H]([C@@H](C)CC)OC(=O)[C@H](C(C)(C)O)N(C)C(=O)[C@H](CC(C)C)NC(=O)[C@H](C(C)C)N(C)C1=O` [Compound 17] (cyclo(F[X18]PI[NMeV]L[NMeVal(β-OH)][Hmp(2R,3S)][NMeV])): the MIC in [1] was 0.015 µg/mL; in test [2], 0.25 µg/mL; in test [3] (setting [11]), 0.06 µg/mL; in test [3] (ATCC22019, Without Tween-80), 1 µg/mL (≈ 0.814 µM); in [4] it was 0.5 µg/mL; in test [5] it was > 64 µg/mL. In addition, the minimal inhibitory concentration (MIC) in test [6] was > 64 µg/mL; in test [7], > 64 µg/mL; in test [8], > 64 µg/mL; in [9] it was 0.12 µg/mL; in test [10] (setting [13]), > 64 µg/mL; in [10] (setting [15]), > 64 µg/mL. Besides, the minimal effective concentration was 0.12 µg/mL in test [4]; > 64 µg/mL in [5]; > 64 µg/mL in [6]; > 64 µg/mL in test [7]; > 64 µg/mL in test [8]; 0.06 µg/mL in [9]. For the same molecule, the minimal effective concentration in test [10] (setting [12]) and in test [10] (setting [14]) was > 64 µg/mL throughout.

For the origin of these results see patent US11066447B2, “Aureobasidium derivatives and methods of synthesis” (AureoGen Biosciences, Inc., priority 2016, dated 2021).
